Assay results published in patent US12370175B2, “Glucocorticoid receptor modulators to treat pancreatic cancer” (Corcept Therapeutics, Inc., priority 2016, dated 2025).
“Also recorded” adds a separate entry of the source.

Tests used:
[1] = system: Human Pancreatic carcinoma cells (MIA-PaCa-2); assay: MIA-PaCa-2 xenograft tumor growth in mice, SGRM combined with paclitaxel; format: in vivo, mice (Balbc/c nude); settings: SGRM 30 mg/kg orally on day prior to and same day as paclitaxel 7.5 mg/kg intravenously Q4D; MIA-PaCa-2 subcutaneous tumors
Experimental: Human Pancreatic carcinoma cells (MIA-PaCa-2) were purchased from the American Type Cell Collection (ATCC). The cells were grown in Dulbecco's Modified Eagle's Medium (DMEM) containing 10% (v/v) heat inactivated fetal calf serum and 2.5% horse serum at 37° C. Suspensions of the cells were injected subcutaneously into the left flank of 5-6 week old immunocompromised female mice (Balbc/c nude), 3 million cells per mouse. Tumors were allowed to grow until they reach a volume of 100-200 cubic millimeters (mm^3). Mice were then grouped into four groups, ten (10) per group, and treated with compounds or vehicle as follows. Vehicle or paclitaxel was administered intravenously and SGRMs, i.e., CORT25134 and CORT125281, were administered orally. SGRMs were administered in vehicle ((10% dimethyl sulfoxide (DMSO), 0.1% Tween 80 (polyethylene glycol sorbitan monooleate (polysorbate 80)) and 89.9% hydroxypropyl methylcellulose (HPMC) (0.5%)). Group 1 was dosed with the compound vehicle (10% DMSO, 0.1% Tween 80 and 89.9% HPMC (0.5%)) daily. Group 2 was dosed with paclitaxel at 7.5 mg/kg, every four days (“Q4D”). Group 3 was dosed with both paclitaxel at 7.5 mg/kg Q4D and CORT125134 at 30 mg/kg on the day prior to and the same day as the day paclitaxel was administered. Group 4 was dosed with both paclitaxel at 7.5 mg/kg Q4D and CORT125281 at 30 mg/kg on the day prior to and the same day as the day paclitaxel was administered.
The longest (L) and shortest (S) diameters of the tumors were measured three times a week with electronic calipers and tumor volume was calculated using the formula […], where a and b are the long and short diameters of the tumor, respectively. The tumor growth data are shown in The FIGURE, in which the mean tumor volume as compared to the mean pre-dosing tumor volume for each group of mice is plotted against the number of days of tumor growth since initiation of the treatment.

[2] = system: exocrine pancreatic tumor; assay: Treating a patient having pancreatic cancer with SGRM and nab-paclitaxel (Example 3, hypothetical); format: in vivo, human; settings: 200 mg once a day for eight weeks with nab-paclitaxel 80 mg per square meter on days 1, 8, 15 of 28-day cycle; end of the treatment period
Experimental: A typical pancreatic patient may complain of upper abdomen pain that typically radiates to the back. Such a patient may experience loss of appetite, nausea and vomiting episodes, and may suffer significant weight loss. A CT scan may show the presence of a tumor in the pancreas. The presence of an exocrine pancreatic tumor may be confirmed by histological analysis. Blood ACTH level may be within the normal range for ACTH. Such a patient may be treated with CORT125134 at a dose of 200 mg once a day for eight weeks in combination with an intravenous infusion of nab-paclitaxel at a dose of 80 mg per square meter of body-surface area as an intravenous infusion over 30 minutes on days 1, 8, and 15 of every 28-day cycle. Tumor load may be monitored using enhanced MRI before, during and after such treatment. Imaging results may indicate that the size of the tumor gradually decreases; such reduction may be more than 50% at the end of the treatment period.

[3] = system: metastatic adenocarcinoma of the pancreas; assay: Clinical study of CORT125134 with nab-paclitaxel in a patient with advanced pancreatic cancer (Example 4); format: in vivo, human
Experimental: A patient with a diagnosis of metastatic adenocarcinoma of the pancreas participated in a clinical study evaluating the efficacy of daily administration of 100 mg of the GR antagonist CORT125134 in combination with nab-paclitaxel infusions weekly for three out of four weeks per cycle. A tumor tissue sample obtained during or prior to the patient's previous treatments was found by immunohistochemistry to have high GR expression, with 90 percent of the cells staining for GR and with a large percentage staining with high intensity. Prior to receiving this combined GR antagonist and nab-paclitaxel treatment, the patient had previously received treatment with multiple lines of chemotherapy: gemcitabine monotherapy; eight months of combination chemotherapy treatment with 5-fluorouracil, leucovorin, irinotecan and oxaliplatin (FOLFIRINOX treatment); five months of treatment with gemcitabine combined with nab-paclitaxel; and four months of combination chemotherapy treatment with 5-fluorouracil, leucovorin, and irinotecan hydrochloride (FOLFIRI treatment). These prior treatments were unsuccessful: the patient's cancer progressed despite these prior chemotherapy treatments.
This patient has so far received 8 months (8 cycles) of the combined treatment of daily 100 mg CORT125134 in combination with nab-paclitaxel infusions weekly for three out of four weeks per cycle. […] When scanned again one month later, the tumor volume was still reduced by approximately 40% compared to baseline volume, thus confirming the PR status. […] The patient remains on the treatment, and continues to tolerate the treatment well.

SMILES	tumor growth (mean tumor volume compared to mean pre-dosing tumor volume), combination versus paclitaxel group [1]	reduction of the size of the tumor (enhanced MRI) [2]	tumor growth reduction, comparison among treatment groups [1]	clinical response ([3]; daily 100 mg CORT125134 with nab-paclitaxel infusions weekly three out of four weeks per cycle, 8 months (8 cycles), one patient)	tolerability of the treatment ([3]; daily 100 mg CORT125134 with nab-paclitaxel infusions, 8 months, one patient)	tumor volume reduction compared to baseline volume (CT scans) ([3]; scanned again one month after the third month, daily 100 mg CORT125134 with nab-paclitaxel)	tumor volume reduction compared to baseline (scan) ([3]; seventh month of treatment, daily 100 mg CORT125134 with nab-paclitaxel, one patient)	tumor volume reduction compared to start of study (CT scans) ([3]; third month/cycle of treatment, daily 100 mg CORT125134 with nab-paclitaxel, one patient)
Cn1ncc(S(=O)(=O)N2CC[C@H]3Cc4c(cnn4-c4ccc(F)cc4)C[C@]3(C(=O)c3cc(C(F)(F)F)ccn3)C2)n1 [CORT125281, ((4aR,8aS)-1-(4-fluorophenyl)-6-((2-methyl-2H-1,2,3-triazol-4-yl)sulfonyl)-4,4a,5,6,7,8,8a,9-octahydro-1H-pyrazolo[3,4-g]isoquinolin-4a-yl)(4-(trifluoromethyl)pyridin-2-yl)methanone]	superior to the paclitaxel group in reducing tumor growth							
Cn1cc(S(=O)(=O)N2CCC3=Cc4c(cnn4-c4ccc(F)cc4)C[C@]3(C(=O)c3cc(C(F)(F)F)ccn3)C2)cn1 [CORT125134, (R)-(1-(4-fluorophenyl)-6-((1-methyl-1H-pyrazol-4-yl)sulfonyl)-4,4a,5,6,7,8-hexahydro-1H-pyrazolo[3,4-g]isoquinolin-4a-yl)(4-(trifluoromethyl)pyridin-2-yl)methanone]	superior to the paclitaxel group in reducing tumor growth	more than 50%	most significant tumor growth reduction	partial response (PR); also recorded: sustained partial response	tolerated the treatment reasonably well; also recorded: tolerated the treatment with CORT125134 and nab-paclitaxel well	approximately 40%	40%	approximately 40%
